Experimental data as given in US9617262B2, “Antibacterial cyclopental[C]pyrrole substituted 3,4-dihydro-1H-[1,8]naphthyridinones” (Janssen Sciences Ireland UC, priority 2011, dated 2017).
≈ marks a conversion by molar mass, not a printed value.

Tests used:
[1] = molecular target: S. aureus ATCC 29213 FabI (Staphylococcus aureus (strain MRSA252), UniProt Q6GI75); assay: Staphylococcus aureus FabI enzyme inhibition assay; assay type: biochemical; conditions: pH 6.5, 30 minutes at room temperature
Description: FabI enzyme inhibition assays were carried out in half-area, 384-well microtitre plates. Compounds were evaluated in 40-μl assay mixtures containing 100 mM NaADA, pH 6.5 (ADA=N-[2-acetamido]-2iminodiacetic acid), 250 μM crotonoyl-CoA, 625 μM NADH and 50 μg/ml S. aureus ATCC 29213 FabI. Inhibitors were typically varied over the range of 50 to 0.39 μM. The reaction mixtures were incubated for 30 minutes at room temperature and the reaction was stopped by adding 200 mM Tris buffer (pH 9.0) to create a pH-shift. The consumption of NADH was monitored by measuring the change in absorbance at […]. By comparing sample readings to those of negative (absence of compound) and positive (absence of enzyme) controls, the percent inhibition of enzymatic activity of the compounds was determined. A best-fit curve is fitted by a minimum of squares method. From this an IC50-value (expressed in μg/ml), resulting in 50% inhibition of enzymatic activity, was obtained.

[2] = test system: Staphylococcus aureus ATCC 29213; assay: Antibacterial susceptibility testing: IC90 determination (STA); assay type: cell-based; conditions: STA ATCC 29213, 90% inhibitory concentration for bacterial growth
Description: (§1) The following bacteria were used: Staphylococcus aureus ATCC 29213, methicillin-resistant Staphylococcus aureus (MRSA) ATCC 700788 and Escherichia coli ATCC 35218. The bacteria used in this study were grown overnight in flasks containing 100 ml Mueller-Hinton broth (Difco cat. nr. 0757-17) in sterile de-ionized water, with shaking, at 37° C. Stocks were store at −70° C. until use.
(§2) Bacteria were incubated on a tryptic soy agar plate containing 5% sheep blood (Becton Dickinson cat. nr. 254053) for 18-24 hours at 35° C. in aerobic conditions (first passage). For the second passage, fresh Mueller-Hinton broth is inoculated with 5-10 colonies and grown overnight at 35° C. until turbidity (reaching log-phase) in aerobic conditions is reached. The bacterial suspension is then adjusted to 0.5 McFarland density and further diluted 1:100 in Mueller Hinton broth medium. This is used as inoculum.
(§3) MIC assays were performed by the broth microdilution method in a 96-well format (flat-bottom microtitre plates) with a final volume of 0.1 ml Mueller Hinton broth containing two-fold serial dilutions of compounds and inoculated with 5×10^5 CFU/ml of bacteria (standard inoculum size according to CLSI guidelines). Inhibitors are typically varied over the range of 63 to 0.49 μM. The final DMSO concentration in the assay was 1.25% (maximum tolerable DMSO concentration=6%). In the assays where the effect of human serum on the activity of the compounds against S. aureus was tested, human serum was added at a final concentration of 10%. The plates were incubated at 35° C. for 16-20 hours. At the end of incubation the bacterial growth was quantified fluorometrically. For this, resazurin was added to all wells and the plates were re-incubated. The incubation time is dependent on the type of bacteria. A change in color from blue to pink indicated the growth of bacteria. The fluorescence was read in computer-controlled fluorometer (Fluoroskan Ascent FL, Labsystems) at an excitation wavelength 540 nm and an emission wavelength of 590 nm. The % growth inhibition achieved by the compounds was calculated according to standard methods. The IC90 (expressed in μg/ml) was defined as the 90% inhibitory concentration for bacterial growth. A panel of reference compounds were simultaneously tested for QC approval.

S. aureus = assay: Antibacterial susceptibility testing: IC90 determination with 10% human serum (STA + 10% HS); assay type: cell-based, Staphylococcus aureus; conditions: human serum at a final concentration of 10%
Description: as §1, §2, §3
The results are depicted in the table D2 below (STA+10% HS).

Human HelaM cells = assay: Cytotoxicity MTT assay (TOX HELAM); assay type: cell-based; conditions: 72 hours
Description: Cytotoxicity of the compounds was evaluated using the MTT assay. Human HelaM cells grown in 96-well plates were exposed to serial dilutions of the tested compounds (final volume of 0.2 ml) and incubated for 72 hours at 37° C. and 5% CO2. Inhibitors are typically varied over the range of 25 to 0.8 μM. The final DMSO concentration in the assay is 0.5%. MTT (3-(4,5-Dimethylthiazol-2-yl)-2,5-diphenyltetrazolium bromide, a tetrazole) was added and reduced to purple formazan only in living cells. Solubilization of the formazan crystals was achieved by adding 100 μl 2-propanol. Cell viability was determined by measuring the absorbance of the reduced formazan, giving a purple color, at 540 nm and 690 nm. The absorbance measured at 690 nm was automatically subtracted from the absorbance at 540 nm, to eliminate the effects of non-specific absorption. The percent cytotoxicity achieved by the compounds was calculated according to standard methods. Cytotoxicity is reported as CC50, the concentration that causes a 50% reduction in cell viability.
The results are depicted in the table D2 below (TOX HELAM).

[3] = test system: Escherichia coli ATCC 25922; reference strain; assay: Antimicrobial spectrum, broth microdilution MIC; assay type: cell-based; conditions: E. coli ATCC 25922
Description: (§4) Minimum Inhibitory Concentrations (MICs) were determined in accordance with the Clinical and Laboratory Standards Institute (CLSI) methodology against aerobic bacteria (CLSI M07-A8) (see Clinical and Laboratory Standards Institute. 2009. Methods for dilution antimicrobial susceptibility tests for bacteria that grow aerobically. CLSI document M07-A8, Vol. 29, No. 2.) by the broth microdilution method with cation-adjusted Mueller-Hinton broth (CA-MHB) medium for the majority of organisms, except for Haemophilus influenza, where Haemophilis test medium (HTM) broth was used. Descriptions of the individual organisms can be found in the table. Where possible, ATCC standard strains were tested.
(§5) The inoculum density for the susceptibility testing was standardized to give a final inoculum of approximately 5×10^5 CFU/mL.
(§6) Stock solutions of the compounds were prepared in DMSO at concentrations of 1 mg/mL. Linezolid was prepared in DMSO at a concentration of 2 mg/mL. Stock solutions of all compounds were diluted into CA-MHB to give a range of two-fold dilutions, depending upon the sensitivity of the organism being tested.

[4] = test system: Escherichia coli Tol C mutant; assay: Antimicrobial spectrum, broth microdilution MIC; assay type: cell-based; conditions: E. coli tolC mutant
Description: as §4, §5, §6

[5] = test system: Haemophilus influenzae ATCC 49247; reference strain; assay: Antimicrobial spectrum, broth microdilution MIC; assay type: cell-based; conditions: H. influenza ATCC 49247
Description: as §4, §5, §6

[6] = test system: Staphylococcus aureus ATCC 29213; reference strain MSSA; assay: Antimicrobial spectrum, broth microdilution MIC; assay type: cell-based; conditions: S. aureus ATCC 29213
Description: as §4, §5, §6

[7] = test system: Staphylococcus aureus ATCC 43300; reference strain MRSA; assay: Antimicrobial spectrum, broth microdilution MIC; assay type: cell-based; conditions: S. aureus ATCC 43300
Description: as §4, §5, §6

[8] = In vivo pharmacokinetic and oral bioavailability; conditions: male Swiss mice; for C0: 20% HP-β-CD solution
Description: The in vivo pharmacokinetics and oral bioavailability of the compound of the examples was/is investigated in male Swiss mice (fed) following single intravenous (i.v.) bolus and oral (p.o.) administration. For the i.v. and p.o. solution formulations, the compound was/is dissolved in a 20% HP-β-CD solution. The pH of the formulations was/is around pH 4. All i.v. formulations were isotonic.

[9] = test system: Staphylococcus aureus NRS119; LZD-R; assay: Antimicrobial spectrum, broth microdilution MIC; assay type: cell-based; conditions: S. aureus NRS119
Description: as §4, §5, §6

[10] = test system: Staphylococcus aureus NRS120; LZD-R; assay: Antimicrobial spectrum, broth microdilution MIC; assay type: cell-based; conditions: S. aureus NRS120
Description: as §4, §5, §6

[11] = test system: Staphylococcus aureus NRS121; LZD-R; assay: Antimicrobial spectrum, broth microdilution MIC; assay type: cell-based; conditions: S. aureus NRS121
Description: as §4, §5, §6

[12] = p.o. 10 mg/kg vs i.v. 2.5 mg/kg

SMILES	FabI IC50 [1] [mg/L]	STA (361.159) IC90 [2] [mg/L]	STA + 10% HS (361.169) IC90 (S. aureus) [mg/L]	TOX HELAM (222.125) CC50 (Human HelaM cells) [mg/L]	MIC90 [3] [mg/L]	MIC90 [4]	MIC90 [5] [mg/L]	MIC90 [6] [mg/L]	MIC90 [7] [mg/L]	AUC0-inf ([8]; i.v. 2.5 mg/kg) [µg·h/mL]	Half life (t1/2) ([8]; i.v. 2.5 mg/kg) [h]	Plasma clearance Cl ([8]; i.v. 2.5 mg/kg) [L/h/kg]	Vdz ([8]; i.v. 2.5 mg/kg) [L/kg]	C0 ([8]; i.v. 2.5 mg/kg) [µg/mL]	Oral bioavailability [8, 12] [%]	Cmax ([8]; p.o. 10 mg/kg) [µg/mL]	Tmax ([8]; p.o. 10 mg/kg) [h]	other results
O=C1CCc2cc(/C=C/C(=O)N3CC4C=C(c5ccsc5)CC4C3)cnc2N1 (stereo not shown) [compound 10]	0.53	0.08	0.13	>3.915	>8	0.125 mg/L (≈ 0.319 µM)	>8	0.015 (≈ 0.0383 µM)	0.03 (≈ 0.0766 µM)	3.992	1.3	0.64	1.2	4.154	81	3.537	1.0	AUC0-inf ([8]; p.o. 10 mg/kg): 12.376 µg·h/mL; Half life (t1/2) ([8]; p.o. 10 mg/kg): 2.2 h
O=C1CCc2cc(/C=C/C(=O)N3C[C@@H]4CN(c5ccccc5)C[C@@H]4C3)cnc2N1 [compound 2]	0.78	1.02	1.09	>19.4696	>8	0.25 mg/L (≈ 0.644 µM)	>8	0.25 (≈ 0.644 µM)	0.5 (≈ 1.29 µM)									
O=C1CCc2cc(/C=C/C(=O)N3CC4C=C(c5ccoc5)CC4C3)cnc2N1 (stereo not shown) [compound 22]	0.58	0.23	0.25	>9.43	>8	1 mg/L (≈ 2.66 µM)	4 (≈ 10.7 µM)	0.06 (≈ 0.16 µM)	0.125 (≈ 0.333 µM)									
O=C1CCc2cc(/C=C/C(=O)N3CC4C=C(c5ccccc5)CC4C3)cnc2N1 (stereo not shown) [compound 1]	0.32	0.09	0.17	>3.8547	>32	≦0.03 μg/ml		0.016 (≈ 0.0415 µM)	0.016 (≈ 0.0415 µM)	7.074	2.9	0.35	1.5	2.921				MIC90 [9]: 0.03 mg/L (≈ 0.0778 µM); MIC90 [10]: 0.016 mg/L (≈ 0.0415 µM); MIC90 [11]: 0.016 mg/L (≈ 0.0415 µM); Oral bioavailability ([8]; p.o. 5 mg/kg vs i.v. 2.5 mg/kg): 86%; AUC0-inf ([8]; p.o. 5 mg/kg): 12.158 µg·h/mL; Cmax ([8]; p.o. 5 mg/kg): 1.72 µg/mL; Half life (t1/2) ([8]; p.o. 5 mg/kg): 3.1 h; Tmax ([8]; p.o. 5 mg/kg): 2.0 h
O=C1CCc2cc(/C=C/C(=O)N3CC4C=C(c5ccncc5)CC4C3)cnc2N1 (stereo not shown) [compound 12]	0.44	0.33	0.53	>9.707	>8	0.25 mg/L (≈ 0.647 µM)	1 (≈ 2.59 µM)	0.125 (≈ 0.323 µM)	0.125 (≈ 0.323 µM)	1.124	1.1	2.2	3.7	2.333	21	0.275	1.0	AUC0-last ([8]; p.o. 10 mg/kg): 0.914 µg·h/mL
